# Reference: ChEMBL document CHEMBL3108720, “Polygonumosides A-D, stilbene derivatives from processed roots of Polygonum multiflorum” (J Nat Prod, 2014)
# System: Radical scavenging activity
# Assay: Antioxidant activity of the compound assessed as DPPH free radical scavenging activity after 30 mins
# Type: functional
row,Structure (SMILES),IC50 [µM]
1,OC[C@H]1O[C@@H](Oc2c(O)cc(O)cc2[C@H](O)[C@@H](c2ccc(O)cc2)c2c(O)cc(O)c(O[C@@H]3O[C@H](CO)[C@@H](O)[C@H](O)[C@H]3O)c2/C=C/c2ccc(O)cc2)[C@H](O)[C@@H](O)[C@@H]1O,> 2000
2,O=c1oc2cc(O[C@@H]3O[C@H](CO)[C@@H](O)[C@H](O)[C@H]3O)c3c(c2c2c(O)c(O)c(O)cc12)O[C@@H](c1ccc(O)cc1)C3,569
3,O=c1oc2cc(O[C@@H]3O[C@H](CO)[C@@H](O)[C@H](O)[C@H]3O)c3c(c2c2c(O)c(O)c(O)cc12)O[C@H](c1ccc(O)cc1)C3,298
4,OC[C@H]1O[C@@H](Oc2c(O)cc(O)cc2[C@@H](O)[C@H](c2ccc(O)cc2)c2c(O)cc(O)c(O[C@@H]3O[C@H](CO)[C@@H](O)[C@H](O)[C@H]3O)c2/C=C/c2ccc(O)cc2)[C@H](O)[C@@H](O)[C@@H]1O,> 2000
